{
  "source": "PubChem BioAssay (NCI)",
  "experiment_in_all_cases": "NCI tumour cell line growth inhibition, 48 h",
  "key": {"[1]": {"system": "ACHN renal"}, "[2]": {"system": "OVCAR-8 ovarian"}, "[3]": {"system": "EKVX NSCLC"}, "[4]": {"system": "HL-60(TB) leukemia"}, "[5]": {"system": "UO-31 renal"}, "[6]": {"system": "HCT-15 colon"}, "[7]": {"system": "SNB-75 CNS"}, "[8]": {"system": "SK-MEL-5 melanoma"}, "[9]": {"system": "SF-268 CNS"}, "[10]": {"system": "IGROV1 ovarian"}, "[11]": {"system": "MALME-3M melanoma"}, "[12]": {"system": "MDA-MB-435"}, "[13]": {"system": "MDA-MB-231 breast"}, "[14]": {"system": "HOP-92 NSCLC"}, "[15]": {"system": "NCI-H226 lung"}, "[16]": {"system": "TK-10 renal"}, "[17]": {"system": "SN12C renal"}, "[18]": {"system": "UACC-62 melanoma"}, "[19]": {"system": "SR leukemia"}, "[20]": {"system": "SF-295 CNS"}, "[21]": {"system": "OVCAR-5 ovarian"}, "[22]": {"system": "SK-OV-3 ovarian"}, "[23]": {"system": "HCT-116 colon"}, "[24]": {"system": "NCI-H23 lung"}, "[25]": {"system": "CCRF-CEM leukemia"}, "[26]": {"system": "LOX IMVI melanoma"}, "[27]": {"system": "KM12 colon"}, "[28]": {"system": "CAKI-1 renal"}},
  "note": "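Following 48 hours of exposure in 96-well plates, responses at five concentrations were used to interpolate endpoints linearly. Abbreviation: GI50, concentration required for 50% inhibition of growth. At the TGI there is no net growth.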",
  "data": [
    {"smiles": "CC(C)n1c(=O)n(C)c2cnc3cc(F)c(-c4ccc(OCCCN5CCCCC5)nc4)cc3c21", "values": [
      {"measurement": "GI50", "setting": "[1]", "value": 16.2, "unit": "µM"},
      {"measurement": "TGI", "setting": "[1]", "value": 76.8, "unit": "µM"},
      {"measurement": "GI50", "setting": "[2]", "value": 14.9, "unit": "µM"},
      {"measurement": "TGI", "setting": "[2]", "value": "> 100", "unit": "µM"},
      {"measurement": "GI50", "setting": "[3]", "value": 8.19, "unit": "µM"},
      {"measurement": "TGI", "setting": "[3]", "value": 48.9, "unit": "µM"},
      {"measurement": "GI50", "setting": "[4]", "value": 12.7, "unit": "µM"},
      {"measurement": "TGI", "setting": "[4]", "value": 38.2, "unit": "µM"},
      {"measurement": "GI50", "setting": "[5]", "value": 3.74, "unit": "µM"},
      {"measurement": "TGI", "setting": "[5]", "value": 16.2, "unit": "µM"},
      {"measurement": "GI50", "setting": "[6]", "value": 11.1, "unit": "µM"},
      {"measurement": "TGI", "setting": "[6]", "value": 31.5, "unit": "µM"},
      {"measurement": "GI50", "setting": "[7]", "value": 4.24, "unit": "µM"},
      {"measurement": "TGI", "setting": "[7]", "value": 18.1, "unit": "µM"},
      {"measurement": "GI50", "setting": "[8]", "value": 6.41, "unit": "µM"},
      {"measurement": "TGI", "setting": "[8]", "value": 19.1, "unit": "µM"},
      {"measurement": "GI50", "setting": "[9]", "value": 11.9, "unit": "µM"},
      {"measurement": "TGI", "setting": "[9]", "value": 40.2, "unit": "µM"},
      {"measurement": "GI50", "setting": "[10]", "value": 8.18, "unit": "µM"},
      {"measurement": "TGI", "setting": "[10]", "value": 41.9, "unit": "µM"},
      {"measurement": "GI50", "setting": "[11]", "value": 10.6, "unit": "µM"},
      {"measurement": "TGI", "setting": "[11]", "value": 23.4, "unit": "µM"},
      {"measurement": "GI50", "setting": "[12]", "value": 17, "unit": "µM"},
      {"measurement": "TGI", "setting": "[12]", "value": 71.4, "unit": "µM"},
      {"measurement": "GI50", "setting": "[13]", "value": 11.4, "unit": "µM"},
      {"measurement": "TGI", "setting": "[13]", "value": 27.6, "unit": "µM"},
      {"measurement": "GI50", "setting": "[14]", "value": 1.2, "unit": "µM"},
      {"measurement": "TGI", "setting": "[14]", "value": 9.36, "unit": "µM"},
      {"measurement": "GI50", "setting": "[15]", "value": 4.99, "unit": "µM"},
      {"measurement": "TGI", "setting": "[15]", "value": 24.4, "unit": "µM"},
      {"measurement": "GI50", "setting": "[16]", "value": 11.3, "unit": "µM"},
      {"measurement": "TGI", "setting": "[16]", "value": 45.4, "unit": "µM"},
      {"measurement": "GI50", "setting": "[17]", "value": 7.14, "unit": "µM"},
      {"measurement": "TGI", "setting": "[17]", "value": 42.8, "unit": "µM"},
      {"measurement": "GI50", "setting": "[18]", "value": 14.1, "unit": "µM"},
      {"measurement": "TGI", "setting": "[18]", "value": 29.3, "unit": "µM"},
      {"measurement": "GI50", "setting": "[19]", "value": 5.76, "unit": "µM"},
      {"measurement": "TGI", "setting": "[19]", "value": 32.2, "unit": "µM"},
      {"measurement": "GI50", "setting": "[20]", "value": 3.99, "unit": "µM"},
      {"measurement": "TGI", "setting": "[20]", "value": 16.4, "unit": "µM"},
      {"measurement": "GI50", "setting": "[21]", "value": 15.7, "unit": "µM"},
      {"measurement": "TGI", "setting": "[21]", "value": 55.7, "unit": "µM"},
      {"measurement": "GI50", "setting": "[22]", "value": 10.8, "unit": "µM"},
      {"measurement": "TGI", "setting": "[22]", "value": 73.8, "unit": "µM"},
      {"measurement": "GI50", "setting": "[23]", "value": 10.9, "unit": "µM"},
      {"measurement": "TGI", "setting": "[23]", "value": 27.4, "unit": "µM"},
      {"measurement": "GI50", "setting": "[24]", "value": 16.5, "unit": "µM"},
      {"measurement": "TGI", "setting": "[24]", "value": "> 100", "unit": "µM"},
      {"measurement": "GI50", "setting": "[25]", "value": 9.9, "unit": "µM"},
      {"measurement": "TGI", "setting": "[25]", "value": 31.8, "unit": "µM"},
      {"measurement": "GI50", "setting": "[26]", "value": 4.13, "unit": "µM"},
      {"measurement": "TGI", "setting": "[26]", "value": 16.6, "unit": "µM"},
      {"measurement": "GI50", "setting": "[27]", "value": 4.19, "unit": "µM"},
      {"measurement": "TGI", "setting": "[27]", "value": 28.8, "unit": "µM"},
      {"measurement": "GI50", "setting": "[28]", "value": 22.9, "unit": "µM"},
      {"measurement": "TGI", "setting": "[28]", "value": "> 100", "unit": "µM"}
    ]}
  ]
}
